In brackets after ≈: the same amount, converted by molar mass. One block for each compound: values may come before it.
Experiments:
[1] = Selectivity index, ratio of CC50 for human CEM-SS cells to EC50 for Antiviral activity against HIV1 3B infected in human CEM-SS cells; assay type: toxicity, cell-based
[2] = Thermodynamic solubility of compound in water at 2 mg after 24 hrs; assay type: physicochemical; settings: read-out: Therm_solubility
[3] = Thermodynamic solubility of compound in plON buffer at 2 mg after 24 hrs; assay type: physicochemical; settings: read-out: Therm_solubility
[4] = test system: Human immunodeficiency virus 1; assay: Antiviral activity against HIV1 3B infected in human CEM-SS cells assessed as reduction in cytopathic effect after 4 days; assay type: functional, organism-based
[5] = Cmax in Sprague-Dawley rat at 2 mg/kg, iv up to 24 hrs by LC-MS/MS analysis; assay type: ADME, organism-based; set-up: route intravenous, dose 2 mg/kg, time <=24; settings: in vivo
[6] = Drug concentration in Sprague-Dawley rat at 10 mg/kg, po after 24 hrs by LC-MS/MS analysis; assay type: ADME, organism-based; settings: in vivo, read-out: Drug uptake
[7] = Drug concentration in Sprague-Dawley rat at 10 mg/kg, po after 8 hrs by LC-MS/MS analysis; assay type: ADME, organism-based; settings: in vivo, read-out: Drug uptake
[8] = Tmax in Sprague-Dawley rat at 2 mg/kg, iv up to 24 hrs by LC-MS/MS analysis; assay type: ADME, organism-based; settings: in vivo
[9] = Tmax in Sprague-Dawley rat at 10 mg/kg, po up to 24 hrs by LC-MS/MS analysis; assay type: ADME, organism-based; settings: in vivo
[10] = Stability in rat liver microsomes assessed as parent compound remaining at 1 uM up to 24 hrs by LC-MS/MS analysis; assay type: ADME, Microsome; settings: read-out: Stabilty
[11] = Elimination rate constant Sprague-Dawley rat at 10 mg/kg, po up to 24 hrs by LC-MS/MS analysis; assay type: ADME, organism-based; settings: in vivo
[12] = MRTlast in Sprague-Dawley rat at 2 mg/kg, iv up to 24 hrs by LC-MS/MS analysis; assay type: ADME, organism-based; settings: in vivo
[13] = Protein binding in rat plasma at 1 uM after 4 hrs by LC-MS/MS analysis; assay type: ADME, cell-free; settings: read-out: PPB (converted)
[14] = AUClast in Sprague-Dawley rat at 2 mg/kg, iv up to 24 hrs by LC-MS/MS analysis; assay type: ADME, organism-based; set-up: route intravenous, dose 2 mg/kg, time <=24; settings: in vivo
[15] = Protein binding in human plasma at 1 uM after 4 hrs by LC-MS/MS analysis; assay type: ADME, cell-free; settings: read-out: PPB
[16] = AUClast in Sprague-Dawley rat at 10 mg/kg, po up to 24 hrs by LC-MS/MS analysis; assay type: ADME, organism-based; set-up: route oral, dose 10 mg/kg, time <=24; settings: in vivo
[17] = Half life in Sprague-Dawley rat at 10 mg/kg, po up to 24 hrs by LC-MS/MS analysis; assay type: ADME, organism-based; settings: in vivo
[18] = Drug concentration in Sprague-Dawley rat at 2 mg/kg, iv after 24 hrs by LC-MS/MS analysis; assay type: ADME, organism-based; settings: in vivo, read-out: Drug uptake
[19] = Cytotoxicity against human CEM-SS cells assessed as reduction in cell viability by XTT assay; assay type: cell-based
[20] = Drug concentration in Sprague-Dawley rat at 2 mg/kg, iv after 8 hrs by LC-MS/MS analysis; assay type: ADME, organism-based; settings: in vivo, read-out: Drug uptake
[21] = MRTlast in Sprague-Dawley rat at 10 mg/kg, po up to 24 hrs by LC-MS/MS analysis; assay type: ADME, organism-based; settings: in vivo
[22] = Elimination rate constant Sprague-Dawley rat at 2 mg/kg, iv up to 24 hrs by LC-MS/MS analysis; assay type: ADME, organism-based; settings: in vivo
[23] = Oral bioavailability in Sprague-Dawley rat at 10 mg/kg up to 24 hrs by LC-MS/MS analysis; assay type: ADME, organism-based; settings: in vivo
[24] = AUCinfinity in Sprague-Dawley rat at 10 mg/kg, po up to 24 hrs by LC-MS/MS analysis; assay type: ADME, organism-based; set-up: route oral, dose 10 mg/kg, time <=24; settings: in vivo
[25] = Cmax in Sprague-Dawley rat at 10 mg/kg, po up to 24 hrs by LC-MS/MS analysis; assay type: ADME, organism-based; set-up: route oral, dose 10 mg/kg, time <=24; settings: in vivo
[26] = AUCinfinity in Sprague-Dawley rat at 2 mg/kg, iv up to 24 hrs by LC-MS/MS analysis; assay type: ADME, organism-based; set-up: route intravenous, dose 2 mg/kg, time <=24; settings: in vivo
[27] = Stability in human liver microsomes assessed as parent compound remaining at 1 uM up to 24 hrs by LC-MS/MS analysis; assay type: ADME, Microsome; settings: read-out: Stabilty
[28] = test system: Human immunodeficiency virus 1; assay: Antiviral activity against HIV1 3B; assay type: functional, organism-based; settings: Human immunodeficiency virus 1, 3B
[29] = test system: Human immunodeficiency virus 1; assay: Antiviral activity against HIV1 3B infected in human CEM-SS cells assessed as reduction in cytopathic effect at 2 nM after 4 days; assay type: functional; set-up: scale not given: the % may be the effect or the level left; settings: time 4 day
[30] = Human immunodeficiency virus 1, 3B, CEM-SS, 96 h

Structure (SMILES): C[C@H]1CO[C@@H]2Cn3cc(C(=O)NCc4ccc5nonc5c4)c(=O)c(O)c3C(=O)N12
Cmax [5]: 37200 ng/mL
concentration at 24 h [6]: 4440 ng/mL
concentration at 8 h [7]: 3470 ng/mL
solubility thermodynamic at 24 h [2]: 2.85 µg/mL (≈ 6.93 µM)
solubility thermodynamic at 24 h [3]: 3.2 µg/mL (≈ 7.78 µM)
Tmax [8]: 1 h
Tmax [9]: 6.67 h
remaining at 24 h, 1 µM [10]: 110%
k el at 24 h [11]: 5.56e-06 s⁻¹
MRTlast [12]: 9.81 h
fraction unbound at 4 h, 1 µM [13]: 0.9
AUC(0-t) at 24 h [14]: 578 µg·h/mL
fraction unbound at 4 h, 1 µM [15]: 0.001
AUC(0-t) at 24 h [16]: 66.9 µg·h/mL
half-life [17]: 35 h
concentration at 24 h [18]: 16600 ng/mL
CC50 [19]: > 10 nM
concentration at 8 h [20]: 24500 ng/mL
MRT last at 24 h [21]: 11.3 h
Kel [22]: 0.03 h⁻¹
F [23]: 17.5%
EC50 [4, 30]: 0.43 nM
AUC [24]: 200.296 µg·h/mL
Cmax [25]: 3680 ng/mL
AUC [26]: 1139.52 µg·h/mL
remaining at 24 h, 1 µM [27]: 105%

Structure (SMILES): C[C@H]1CO[C@@H]2Cn3cc(C(=O)NCc4cc5c(cc4Br)OCO5)c(=O)c(O)c3C(=O)N12
selectivity ratio ([1]; CEM-SS cells, read-out: Ratio CC50/EC50): > 5.2
solubility thermodynamic at 24 h [2]: 21 µg/mL (≈ 42.7 µM)
solubility thermodynamic at 24 h [3]: 21 µg/mL (≈ 42.7 µM)
CC50 [19]: > 10 nM
EC50 [4, 30]: 1.93 nM

Structure (SMILES): Cc1cc2c(cc1CNC(=O)c1cn3c(c(O)c1=O)C(=O)N1[C@@H](C)CO[C@@H]1C3)OCCO2
solubility thermodynamic at 24 h [2]: 56 µg/mL (≈ 127 µM)
solubility thermodynamic at 24 h [3]: 70 µg/mL (≈ 159 µM)
CC50 [19]: > 10 nM
EC50 [4, 30]: > 10 nM

Structure (SMILES): O=C(NCc1c(F)cc(F)cc1F)c1cn2c(c(O)c1=O)C(=O)N1[C@H]3CC[C@H](C3)O[C@@H]1C2 [BICTEGRAVIR]
EC50 [28]: 1 nM

Structure (SMILES): C[C@H]1CO[C@@H]2Cn3cc(C(=O)NCc4ccc(F)cc4F)c(=O)c(O)c3C(=O)N12 [CABOTEGRAVIR]
Activity [29]: >50%

Now from value to compound, other results behind:

solubility thermodynamic at 24 h [2]: 2680 µg/mL
solubility thermodynamic at 24 h [3]: 1680 µg/mL
EC50 ([4]; cem-ss): 4.8 nM
Structure (SMILES): C[C@H]1CO[C@@H]2Cn3cc(C(=O)NCc4ccc(F)nc4F)c(=O)c([O-])c3C(=O)N12.[Na+]
Ratio CC50/EC50 [1]: > 2.08

solubility thermodynamic at 24 h [2]: 78 µg/mL (≈ 201 µM)
solubility thermodynamic at 24 h [3]: 91 µg/mL (≈ 234 µM)
EC50 [4, 30]: > 10 nM
Structure (SMILES): C[C@H]1CO[C@@H]2Cn3cc(C(=O)NCc4ccncc4F)c(=O)c(O)c3C(=O)N12
CC50 [19]: > 10 nM

EC50 [28]: 1.1 nM
Structure (SMILES): C[C@@H]1CCO[C@H]2Cn3cc(C(=O)NCc4ccc(F)cc4F)c(=O)c(O)c3C(=O)N12 [DOLUTEGRAVIR]
